From paper PMC3283556, “The Activities of Current Antimalarial Drugs on the Life Cycle Stages of Plasmodium: A Comparative Study with Human and Rodent Parasites” (PLoS Medicine, 2012)
“Also recorded” adds a separate entry of the source. Read-outs that look alike come from different tables or passages of the source. One block for each molecule: values may come before it.

Assays:
[1] = tested on: P. falciparum mature gametocytes / male gamete exflagellation; experiment: P. falciparum exflagellation assay; format: cell-based, Plasmodium falciparum; details: for inhibition at 10 µM: Plasmodium falciparum
Procedure: After 24 h, exflagellation was triggered by a temperature decrease to ∼21°C and observed 20 min later under the microscope. Highly motile exflagellation centres were recorded for ∼50–150 adjacent fields of view and reported per 10,000 RBCs.
(§1) (A) Assays examined exflagellation (P. falciparum), ookinete formation (P. berghei), or oocyst formation (P. falciparum). All antimalarials were screened at 10 µM. (B) The biological content of the in vitro P. berghei ookinete assay spans gamete formation, fertilization, zygote development, and ookinete formation. […] (D) The in vitro P. falciparum exflagellation assay exposes mature gametocytes to antimalarials for 24 h before triggering exflagellation. […] All experiments in triplicate. (E) The in vivo P. falciparum oocyst assay differs from the P. berghei oocyst assay in that mature gametocytes were exposed to the antimalarials in culture for 24 h before feeding to mosquitoes.

[2] = tested on: P. berghei ookinete formation; experiment: P. berghei ookinete development assay; format: cell-based, Plasmodium berghei; details: for effect on ookinete formation: 10 µM; for IC50 / inhibition at 10 µM: Plasmodium berghei; for IC50: read-out: IC50 ookinete formation; for inhibition at 10 µM: read-out: Inhibition at 10 μM (ookinete, Figure 5)
Procedure: Compounds and P. berghei gametocyte-infected blood were dispensed in a 96-well plate containing ookinete medium. After 24 h at 19°C, Giemsa-stained ookinetes were counted under the microscope (×40) as previously described,[28].
as §1, with “Figure 3 The transmission-blocking potential of selected antimalarials in three bioassays that cover different phases of Plasmodium vector stage development. (A)” for “(A)”, “formation. Ookinete formation was insensitive to most of the antimalarials tested.” for “formation.”, “mosquitoes. […] NPC1161-B, lumefantrine, halofantrine, and mefloquine +RS isomer were also active. (n = 4–61 observations; average ± standard error of the mean [SEM]).” for “mosquitoes.”

[3] = tested on: P. yoelii liver stage parasites (liver schizonts); experiment: P. yoelii liver stage assay in HepG2 cells (EEF immunofluorescence); format: cell-based, Plasmodium yoelii; details: for IC50: Plasmodium yoelii
Procedure: (§2) 7.5×10^3 HepG2 cells in 50 µl of medium (1.5×10^5 cells/ml) were seeded in 384 well plates (Aurora 384 IQ-EB Black/Clear Plates) 20–26 h prior to the actual infection. 2 h prior to infection, 50 nl of compound in DMSO (0.1% final DMSO concentration per well) were transferred with a PinTool (GNF Systems) into the assay plates (10 µM final concentration). P. yoelii sporozoites were freshly dissected from infected A. stephensi mosquito salivary glands and filtered twice with a 40-µm strainer. The HepG2 cells were then infected with 8×10^3 sporozoites per well. After infection and 1-h incubation at 37°C, the cultures were washed, new media and compound added, and further incubated with 5-fold increased concentration of penicillin/streptomycin for 48 h at 37°C before exoerythrocytic forms (EEFs) quantification of infected cells by immunofluorescence.
After washing with 1×PBS and fixation of the cells with 4% paraformaldehyde solution (EMS), membranes were permeabilised with 0.5% Triton-X-100 (Thermo Fisher Scientific) and EEFs were stained using a mouse polyclonal serum raised against the Plasmodium heat shock protein 70 (HSP70), an Alexa goat antimouse IgG, Fca-specific DyLight 649 secondary antibody (Invitrogen), and the Hoechst 33342 nucleic acid dye (Invitrogen). Stained EEFs were then quantified using the Opera Confocal High Content Screening system (PerkinElmer). Images were collected using a 20× magnification at a binning of 2 using a 365 Xeon arc lamp illumination to detect the nuclei and 635-nm laser line to excite DyLight649.
(§3) High-content imaging of infected HepG2-CD81 cells was performed as described in Meister et al.. Wells were analysed using a custom Acapella (PerkinElmer) script parameterized for this assay. In brief, images from fields inside the well were first discarded as out of focus when the intensity in the nuclear area was too low. Then hepatic cells were counted by detecting the nuclei labelled with Hoechst 33342 and parasites were segmented using the HSP70 immuno-labelling. Morphology-based (e.g., area, roundness) and intensity-based features were calculated for each object detected including the hepatocyte nuclei and the parasites. Parasitemia was set as the ratio between parasite number (Alexa fluor positive) and the hepatocyte nuclei count, determined at the same time.
(§4) When an infected mosquito bites a host, ∼100 sporozoites may be injected into the dermis from where they rapidly invade liver cells,[33]. This infective step represents the second bottleneck during transmission and therefore another potentially vulnerable point for intervention. In the absence of a practical liver stage assay measuring the formation of P. falciparum/P. vivax liver schizonts, an equivalent assay was developed in P. yoelii and used to assess the activity of the collection of molecules against this specific stage. Specifically, P. yoelii sporozoites were dissected from the salivary glands of infected mosquitoes and were allowed to invade human hepatocarcinoma cells expressing the CD81 protein. The development of the liver schizonts was monitored by immunofluorescence staining using an HSP70 antibody specific to the parasite (Figure 4A).
Figure 4 Validation and results of anti-infectives tested against P. yoelii liver stage parasites. (A) Opera-generated images from a time point experiment using a 20× objective lens. P. yoelii parasites (red) were visualized using a mouse polyclonal HSP70 antibody, and the HepG2 cells (green) were stained with Hoechst 33342 nucleic acid dye. […] (B) A dose response plot with atovaquone from data generated from the Opera imaging system. The median areas of compound-treated parasites were compared to untreated DMSO controls to determine the degree of inhibition.

HepG2 cells = experiment: Growth retardation of HepG2 cells; details: for IC50: Homo sapiens, HepG2, read-out: IC50 HepG2; for CI (cytotoxicity index): IC50 HepG2 compared to IC50 parasite
Procedure: as §2, §3, §4

Plasmodium oocysts = experiment: Oocyst development / sporogony, Plasmodium species not stated at the place; format: in vivo; details: Plasmodium; 10 μM; box linked to oocysts; read-out: Inhibition at 10 μM (oocysts, Figure 5)
Procedure: (§5) Membrane feeds were performed as described previously. Briefly, PbGFPcon-infected mouse blood was mixed with compounds, immediately placed into membrane feeders (39°C) and offered for 30 min to 80–100 overnight-starved A. stephensi (SDA 500 strain). After 7–9 d at 19°C/80%RH, mosquito midguts were dissected out. Midguts were fixed with paraformaldehyde and oocyst number was determined microscopically by semi-automated analysis as previously described.
Gametocyte cultures were produced according to the same protocol as the Pf exflagellation assay. Pooled gametocyte cultures were evenly divided between compounds in fresh medium and incubated at 37°C for 24 h. The parasite pellets were then resuspended in fresh RBCs and human serum treated with the compounds to a 50% haematocrit and immediately fed to mosquitoes as described above and then maintained at 27°C/60%RH for 10–12 d before dissection and counting. […]

[4] = tested on: P. falciparum asexual blood stage parasites (strains NF54, D6, K1, W2, 7G8, TM90C2A, V1/S); experiment: [3H]-hypoxanthine incorporation growth inhibition assay, asexual blood stage; format: cell-based, Plasmodium falciparum; details: for IC50: Plasmodium falciparum
Procedure: In vitro antimalarial activity was measured using the [^3H]-hypoxanthine incorporation assay with various strains of P. falciparum obtained from MR4. Results were expressed as the concentration resulting in 50% inhibition (IC50).
The half-maximal inhibitory concentrations (IC50) were determined for each molecule (Table S2).
Figure 2 The potencies of selected antimalarials against asexual blood stages. Main classes of antimalarials were tested against the blood stage of seven Plasmodium falciparum strains in the [^3H]hypoxanthine incorporation assay as described in Vennerstrom et al.. The strains tested here (obtained from MR4) were two drug-sensitive strains NF54 and D6 and five drug-resistant strains: K1, resistant to chloroquine (CQ) and pyrimethamine (PYR), origin Thailand, carries mutations in genes pfmdr1, pfcrt, pfdhfr, pfdhps; W2, resistant to CQ, PYR, quinine, cycloguanil, and sulfadoxine, origin Vietnam; 7G8, resistant to CQ and PYR, origin Brazil; TM90C2A, resistant to CQ, PYR, and MFQ, origin Thailand; and V1/S, resistant to CQ, PYR and cycloguanil, origin Vietnam. Results are expressed as the concentration resulting in 50% growth inhibition (IC50).Values are means of ≥3 independent experiments. (A) Endoperoxides. (B) 4-AQs. (C) 8-AQs and amino alcohols. (D) Antifolates, antibiotics, and others.

[5] = tested on: P. berghei oocyst formation; experiment: Standard membrane feed assay, P. berghei oocysts in A. stephensi; format: in vivo, Plasmodium berghei; details: 10 µM
Procedure: as §5
Supplementary file pmed.1001169.s001.tif: Figure S1 The transmission-blocking potential of selected compounds against P. berghei in standard membrane feeding assays. All antimalarials were screened at 10 µM in triplicate in independent experiments. The biological content of this assay spans gamete formation through to occyst development all within the gut of the mosquito. […] (TIF) Click here for additional data file.

[6] = 10 µM, 24 h exposure of mature gametocytes
[7] = read-out: Inhibition at 10 μM (gametocytes/exflagellation, Figure 5)
[8] = HepG2, read-out: IC50 (liver schizont, Figure 5)
[9] = HepG2, read-out: IC50 liver stage
[10] = HepG2, box linked to liver schizont, read-out: IC50 (liver schizont, Figure 5)

Structure (SMILES): C=C(NC(=O)C(=C)NC(=O)c1csc(C2=N[C@@H]3c4csc(n4)[C@H]4NC(=O)c5csc(n5)[C@H]([C@](C)(O)[C@@H](C)O)NC(=O)[C@H]5CSC(=N5)/C(=C/C)NC(=O)[C@H]([C@@H](C)O)NC(=O)c5csc(n5)[C@]3(CC2)NC(=O)[C@H](C)NC(=O)C(=C)NC(=O)[C@H](C)NC(=O)[C@H]([C@@H](C)CC)N[C@@H]2C=Cc3c([C@H](C)O)cc(nc3[C@H]2O)C(=O)O[C@@H]4C)n1)C(N)=O [thiostrepton]
effect on exflagellation (words) [1, 6]: Inhibition of exflagellation
inhibition at 10 µM ([1]; 24 h, read-out: inhibition of exflagellation): > 80%
inhibition at 10 µM [1, 7]: > 60%
effect on ookinete formation [2]: strongly inhibited ookinete formation
IC50 [2]: 8000 nM
inhibition at 10 µM [2]: > 80%
IC50 [3, 8]: < 1000 nM
IC50 ([3]; HepG2, read-out: IC50 Parasite): 180 ± 50 nM
IC50 [3, 9]: < 200 nM
potency range against liver stages ([3]; dose response): submicromolar potencies
effect on growth of HepG2-CD81 cells (HepG2 cells): retarded the growth of HepG2-CD81 cells
IC50 (HepG2 cells): 180 ± 20 nM
CI (cytotoxicity index) (HepG2 cells): 1.0

IC50 [3, 10]: < 1000 nM
Structure (SMILES): C[C@H]1[C@@H](O)O[C@@H]2O[C@@]3(C)CC[C@H]4[C@H](C)CC[C@@H]1[C@@]24OO3 [DHA, dihydroartemisinin]
inhibition at 10 µM (Plasmodium oocysts): > 90%

Structure (SMILES): O=CN(O)CCCP(=O)(O)O [fosmidomycin]
effect on ookinete formation [2]: enhancement of ookinete formation that was not statistically significant

Structure (SMILES): CCc1nc(N)nc(N)c1-c1ccc(Cl)cc1 [pyrimethamine]
IC50 ([4]; Erythrocyte, box linked to blood stage schizont, read-out: IC50 (erythrocyte schizont, Figure 5)): < 20 nM
resistance / retention of potency against resistant strains ([4]; drug-resistant strains): Resistance to pyrimethamine was verified in all drug-resistant strains
inhibition at 10 µM ([1]; read-out: inhibition of exflagellation, 10 µM, 24 h exposure of mature gametocytes): > 80%
effect on ookinete formation [2]: strongly inhibited ookinete formation
inhibition at 10 µM ([2]; 10 μM, box linked to ookinete): > 80%
transmission-blocking effect on P. berghei oocysts (words) [5]: most notable transmission-blocking activity
IC50 [3, 10]: < 1000 nM
IC50 ([3]; HepG2, dose response, median parasite area (Opera), read-out: IC50 liver stage): < 10 nM
inhibition at 10 µM (Plasmodium oocysts): > 90%

IC50 ([3]; HepG2, development of P. yoelii liver schizonts following infection of HepG2 cells, read-out: IC50 Parasite): 1690 ± 1220 nM
IC50 (HepG2 cells): 7400 ± 5130 nM
Structure (SMILES): CC(C)(N)CNC(=O)C[C@H]1CC[C@]2(CC1)OO[C@]1(O2)C2CC3CC(C2)CC1C3 [OZ277]
effect on exflagellation (words) [1, 6]: inhibited exflagellation totally
inhibition at 10 µM ([1]; 10 μM, box linked to gametocytes/exflagellation, read-out: Inhibition at 10 μM (gametocytes/exflagellation, Figure 5)): > 60%
CI (cytotoxicity index) (HepG2 cells): 4.38
inhibition at 10 µM (Plasmodium oocysts): > 90%

Structure (SMILES): COc1cc(C)c2c(Oc3cccc(C(F)(F)F)c3)c(OC)cc(NC(C)CCCN)c2n1 (centres unmarked) [tafenoquine]
IC50 ([4]; strain 7G8): ~50 nM
IC50 ([4]; strain NF54): ~500 nM
effect on ookinete formation [2]: enhancement of ookinete formation that was not statistically significant

Structure (SMILES): C[C@@H]1C[C@@H]([C@H](O)CC2CC(=O)NC(=O)C2)C(=O)[C@@H](C)C1 [cycloheximide]
effect on exflagellation (words) [1, 6]: inhibited exflagellation totally; also recorded: Inhibition of exflagellation
inhibition at 10 µM [1, 7]: > 60%
effect on ookinete formation [2]: strongly inhibited ookinete formation
IC50 [2]: 25 nM
inhibition at 10 µM [2]: > 80%
transmission-blocking effect on P. berghei oocysts (words) [5]: most notable transmission-blocking activity
IC50 [3, 8]: < 1000 nM
IC50 ([3]; HepG2, read-out: IC50 Parasite): 150 ± 10 nM
IC50 [3, 9]: < 200 nM
effect on growth of HepG2-CD81 cells (HepG2 cells): retarded the growth of HepG2-CD81 cells
IC50 (HepG2 cells): 920 ± 290 nM
CI (cytotoxicity index) (HepG2 cells): 6.13

Structure (SMILES): CCCCC[C@@H]1CN[C@H](C(=O)N[C@@H]([C@H]2O[C@H](SC)[C@H](O)[C@@H](O)[C@H]2O)[C@H](C)Cl)C1 [cis-mirincamycin]
effect on ookinete formation [2]: enhancement of ookinete formation that was not statistically significant
